One data set concerns MV4-11 cells. The experiment in a line: MV4-11 Cell Cytotoxicity Assay (CellTiter-Blue, 72 h). Type of data set: cell-based, human. The settings on record: Homo sapiens, MV4-11; MV-4-11 cells. The essentials:
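Cells seeded 24 h before treatment, then exposed 72 h at 37° C, 5% CO2 to inhibitors in triplicate, top concentration 50 μM with 1:2 serial dilutions (0.5% DMSO vehicle). Viability read by CellTiter-Blue fluorescence at 560/590 nm after 1 h.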
Background: The colour change of resazurin is a common sign of viable cells or microbes.

The test system of data set [1] is normal human fibroblast (NHF) cells. The experiment in a line: NHF Cell Cytotoxicity Assay (CellTiter-Blue, 72 h), off-target effects. Type of data set: cell-based. The conditions noted are these: Homo sapiens, Fibroblast; pooled NHF cells. The essentials:
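Normal human fibroblasts (1×10^4/well, 10% FBS medium) were treated after 24 h with inhibitor at 0.097656-50 μM for 72 h at 37° C. Viability was read by CellTiter-Blue fluorescence (560/590 nm), normalized to DMSO control, and IC50 obtained from a variable-slope log(inhibitor)-response fit of four replicates.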

The subject of another data set is glutathione (GSH). In words: Reactivity Profiling with Glutathione (GSH), half-life by HPLC. The conditions noted are these: 5 mM glutathione (GSH) in IMDM with 10% FBS.

The results in this text go back to patent publication US20230159445A1, “STAT INHIBITORY COMPOUNDS AND COMPOSITIONS” (JANPIX LIMITED, priority 2020, published 2023).

Each structure is given as a SMILES string.

A word on the IC50: it is the concentration that inhibits the measured activity by half. Read a low IC50 as inhibition by little substance. Broadly, the half-life is the time needed for the level to fall by half in the phase considered. Low values mean fast loss, high ones slow loss. Take `CC(C)(C)c1cc(CN(C(=O)CN(Cc2cnccc2C(F)(F)F)S(=O)(=O)c2c(F)c(F)c(F)c(F)c2F)c2ccc(C(=O)O)cc2OC2CC2)cc(C2CC2)c1` [Compound 1142, 4-(N-(3-(tert-butyl)-5-cyclopropylbenzyl)-2-(N-((4-(trifluoromethyl)pyridin-3-yl)methyl)-(2,3,4,5,6-pentafluoro-phenyl)sulfonamido)acetamido)-3-cyclopropoxybenzoic acid]: the figures for the IC50 (in the data set with MV4-11 cells; in data set [1]) were 0.01 to 316 nM and 20000 to 30000 nM, respectively. In addition, the half-life at 25 μM in the data set on glutathione (GSH) lay within 4.12 to 9.23 h.
In the case of `COc1cc(C(=O)O)ccc1N(Cc1cc(C2CC2)cc(C(C)(C)C)c1)C(=O)CN(Cc1ccc(F)cc1Cl)S(=O)(=O)c1c(F)c(F)c(F)c(F)c1F` [Compound 1143, 4-(N-(3-(tert-butyl)-5-cyclopropylbenzyl)-2-(N-(2-chloro-4-fluorobenzyl)-(2,3,4,5,6-pentafluorophenyl)sulfon-amido)acetamido)-3-methoxybenzoic acid], the results for the IC50 (in the data set with MV4-11 cells; in data set [1]) were 0.01 to 316 nM and 10000 to 20000 nM, respectively. In the data set on glutathione (GSH), the half-life at 25 μM is 4.12 to 9.23 h.
On to `COc1cc(C(=O)O)ccc1N(Cc1cc(C2CC2)cc(C(C)(C)C)c1)C(=O)CN(Cc1c(F)cccc1F)S(=O)(=O)c1c(F)c(F)c(F)c(F)c1F` [Compound 1145, 4-(N-(3-(tert-butyl)-5-cyclopropylbenzyl)-2-(N-(2,6-difluorobenzyl)-(2,3,4,5,6-pentafluorophenyl)sulfon-amido)acetamido)-3-methoxybenzoic acid], for which the IC50 in the data set with MV4-11 cells fell in the range of 0.01 to 316 nM; in data set [1] it was 1 to 10000 nM. In the data set with glutathione (GSH), this compound registered a half-life at 25 μM of 2.37 to 4.12 h.
With `COc1cc(C(=O)O)ccc1N(Cc1cc(C2CC2)cc(C2CC2)c1)C(=O)CN(Cc1cnccc1C(F)(F)F)S(=O)(=O)c1c(F)c(F)c(F)c(F)c1F` [Compound 1146, 4-(N-(3,5-dicyclopropylbenzyl)-2-(N-((4-(trifluoromethyl)pyridin-3-yl)methyl)-(2,3,4,5,6-pentafluoro-phenyl)sulfonamido)acetamido)-3-methoxybenzoic acid], the IC50 in the data set with MV4-11 cells was 316 to 1000 nM; in data set [1] it was 1 to 10000 nM. The same compound yielded a half-life at 25 μM with glutathione (GSH) of 0.00167 to 2.37 h.
For the compound `COc1cc(C(=O)O)ccc1N(Cc1cc(C2CC2)cc(C2CC2)c1)C(=O)CN(Cc1c(F)cc(F)cc1F)S(=O)(=O)c1c(F)c(F)c(F)c(F)c1F` [Compound 1148, 4-(N-(3,5-dicyclopropylbenzyl)-2-(N-(2,4,6-trifluorobenzyl)-(2,3,4,5,6-pentafluoro-phenyl)sulfonamido)acetamido)-3-methoxybenzoic acid], the IC50 in the data set on MV4-11 cells lay within 0.01 to 316 nM; in data set [1], 1 to 10000 nM. Besides, the half-life at 25 μM in the data set with glutathione (GSH) is 2.37 to 4.12 h.
As to `O=C(O)c1ccc(N(Cc2cc(C3CC3)cc(C3CC3)c2)C(=O)CN(Cc2ncccc2C(F)(F)F)S(=O)(=O)c2c(F)c(F)c(F)c(F)c2F)c(OC2CC2)c1` [Compound 1164, 3-cyclopropoxy-4-(N-(3,5-dicyclopropylbenzyl)-2-(N-((3-(trifluoromethyl)pyridin-2-yl)methyl)-(2,3,4,5,6-pentafluoro-phenyl)sulfonamido)acetamido)benzoic acid], the figures for the IC50 (in the data set with MV4-11 cells; in data set [1]) were 316 to 1000 nM and 20000 to 30000 nM, respectively. The half-life at 25 μM in the data set with glutathione (GSH) is 4.12 to 9.23 h.
Consider `COc1cc(C(=O)O)ccc1N(Cc1cc(C2CC2)cc(C2CC2)c1)C(=O)CN(Cc1ccc(F)cc1Cl)S(=O)(=O)c1c(F)c(F)c(F)c(F)c1F` [Compound 1166, 4-(2-(N-(2-chloro-4-fluorobenzyl)-(2,3,4,5,6-pentafluorophenyl)sulfon-amido)-N-(3,5-dicyclopropylbenzyl)acetamido)-3-methoxybenzoic acid], for which the IC50 lay within 0.01 to 316 nM with MV4-11 cells and 1 to 10000 nM in data set [1]. In addition, the half-life at 25 μM in the data set with glutathione (GSH) lay within 2.37 to 4.12 h.
Regarding `O=C(O)c1ccc(N(Cc2cc(C3CC3)cc(C3CC3)c2)C(=O)CN(Cc2ccc(F)cc2Cl)S(=O)(=O)c2c(F)c(F)c(F)c(F)c2F)c(OC2CC2)c1` [Compound 1167, 4-(2-(N-(2-chloro-4-fluorobenzyl)-(2,3,4,5,6-pentafluorophenyl)sulfon-amido)-N-(3,5-dicyclopropylbenzyl)acetamido)-3-cyclopropoxybenzoic acid], the results for the IC50 (in the data set on MV4-11 cells; in data set [1]) were 0.01 to 316 nM and 10000 to 20000 nM, respectively. Also, in the data set with glutathione (GSH), the half-life at 25 μM was in the range of 4.12 to 9.23 h.
In the case of `O=C(O)c1ccc(N(Cc2cc(C3CC3)cc(C3CC3)c2)C(=O)CN(Cc2c(F)cc(F)cc2F)S(=O)(=O)c2c(F)c(F)c(F)c(F)c2F)c(OC2CC2)c1` [Compound 1178, 3-cyclopropoxy-4-(N-(3,5-dicyclopropylbenzyl)-2-(N-(2,4,6-trifluorobenzyl)-(2,3,4,5,6-pentafluoro-phenyl)sulfonamido)acetamido)benzoic acid], the IC50 was in the range of 0.01 to 316 nM with MV4-11 cells and 10000 to 20000 nM in data set [1]. Besides, in the data set with glutathione (GSH), the half-life at 25 μM is 4.12 to 9.23 h.
On to `O=C(O)c1ccc(N(Cc2cc(C3CC3)cc(C3CC3)c2)C(=O)CN(Cc2c(F)c(F)c(F)c(F)c2F)S(=O)(=O)c2c(F)c(F)c(F)c(F)c2F)c(OC2CC2)c1` [Compound 1183, 3-cyclopropoxy-4-(N-(3,5-dicyclopropylbenzyl)-2-(N-((perfluorophenyl)methyl)-(2,3,4,5,6-pentafluoro-phenyl)sulfonamido)acetamido)benzoic acid], for which the IC50 was 0.01 to 316 nM in the data set with MV4-11 cells and 1 to 10000 nM in data set [1]. The half-life at 25 μM in the data set with glutathione (GSH) is 9.23 to 1670 h.
Regarding `CC(C)(C)c1cc(CN(C(=O)CN(Cc2cnccc2C(F)(F)F)S(=O)(=O)c2c(F)c(F)c(F)c(F)c2F)c2ccc(C(=O)O)cc2C2CC2)cc(C2CC2)c1` [Compound 1186, 4-(N-(3-(tert-butyl)-5-cyclopropylbenzyl)-2-(N-((4-(trifluoromethyl)pyridin-3-yl)methyl)-(2,3,4,5,6-pentafluoro-phenyl)sulfonamido)acetamido)-3-cyclopropylbenzoic acid], the values for the IC50 (with MV4-11 cells; in data set [1]) were 0.01 to 316 nM and 1 to 10000 nM, respectively. Further, in the data set with glutathione (GSH), the half-life at 25 μM lay within 2.37 to 4.12 h.
For the compound `CC(C)(C)c1cc(CN(C(=O)CN(Cc2ccc(F)cc2Cl)S(=O)(=O)c2c(F)c(F)c(F)c(F)c2F)c2ccc(C(=O)O)cc2OC2CC2)cc(C2CC2)c1` [Compound 1189, 4-(N-(3-(tert-butyl)-5-cyclopropylbenzyl)-2-(N-(2-chloro-4-fluorobenzyl)-(2,3,4,5,6-pentafluorophenyl)sulfon-amido)acetamido)-3-cyclopropoxybenzoic acid], the IC50 lay in the range of 0.01 to 316 nM in the data set with MV4-11 cells and 10000 to 20000 nM in data set [1]. Moreover, the half-life at 25 μM with glutathione (GSH) was 9.23 to 1670 h.
For the compound `O=C(O)c1ccc(N(Cc2cc(C3CC3)cc(N3CCCC3)c2)C(=O)CN(Cc2c(F)cc(F)cc2F)S(=O)(=O)c2c(F)c(F)c(F)c(F)c2F)c(OC2CC2)c1` [Compound 1191, 3-cyclopropoxy-4-(N-(3-cyclopropyl-5-(pyrrolidin-1-yl)benzyl)-2-(N-(2,4,6-trifluorobenzyl)-(2,3,4,5,6-pentafluoro-phenyl)sulfonamido)acetamido)benzoic acid], the results for the IC50 (in the data set with MV4-11 cells; in data set [1]) were 316 to 1000 nM and 1 to 10000 nM, respectively. In the data set with glutathione (GSH), this compound gave a half-life at 25 μM of 9.23 to 1670 h.
For `O=C(O)c1ccc(N(Cc2cc(C3CC3)cc(N3CCCC3)c2)C(=O)CN(Cc2ccc(F)cc2Cl)S(=O)(=O)c2c(F)c(F)c(F)c(F)c2F)c(OC2CC2)c1` [Compound 1192, 4-(2-(N-(2-chloro-4-fluorobenzyl)-(2,3,4,5,6-pentafluorophenyl)sulfon-amido)-N-(3-cyclopropyl-5-(pyrrolidin-1-yl)benzyl)acetamido)-3-cyclopropoxybenzoic acid], the IC50 was 316 to 1000 nM in the data set with MV4-11 cells and 10000 to 20000 nM in data set [1]. This compound also came in with a half-life at 25 μM in the data set with glutathione (GSH) of 9.23 to 1670 h.
In the case of `O=C(O)c1ccc(N(Cc2cc(C3CC3)cc(C3CC3)c2)C(=O)CN(Cc2cnccc2C(F)(F)F)S(=O)(=O)c2c(F)c(F)c(F)c(F)c2F)c(C2CC2)c1` [Compound 1194, 3-cyclopropyl-4-(N-(3,5-dicyclopropylbenzyl)-2-(N-((4-(trifluoromethyl)pyridin-3-yl)methyl)-(2,3,4,5,6-pentafluoro-phenyl)sulfonamido)acetamido)benzoic acid], the 50% inhibitory concentration (IC50) in the data set with MV4-11 cells fell in the range of 0.01 to 316 nM; in data set [1], 1 to 10000 nM. Further, in the data set on glutathione (GSH), the half-life at 25 μM fell in the range of 0.00167 to 2.37 h.
As for `O=C(O)c1ccc(N(Cc2cc(C3CC3)cc(C3CC3)c2)C(=O)CN(Cc2c(F)cc(F)cc2F)S(=O)(=O)c2c(F)c(F)c(F)c(F)c2F)c(C2CC2)c1` [Compound 1195, 3-cyclopropyl-4-(N-(3,5-dicyclopropylbenzyl)-2-(N-(2,4,6-trifluorobenzyl)-(2,3,4,5,6-pentafluoro-phenyl)sulfonamido)acetamido)benzoic acid], the IC50 in the data set on MV4-11 cells was 0.01 to 316 nM; in data set [1], 1 to 10000 nM. The compound further displayed a half-life at 25 μM in the data set with glutathione (GSH) of 2.37 to 4.12 h.
As to `O=C(O)c1ccc(N(Cc2cc(C3CC3)cc(C3CC3)c2)C(=O)CN(Cc2c(F)c(F)c(F)c(F)c2F)S(=O)(=O)c2c(F)c(F)c(F)c(F)c2F)c(C2CC2)c1` [Compound 1196, 3-cyclopropyl-4-(N-(3,5-dicyclopropylbenzyl)-2-(N-((perfluorophenyl)methyl)-(2,3,4,5,6-pentafluoro-phenyl)sulfonamido)acetamido)benzoic acid], the IC50 fell in the range of 0.01 to 316 nM with MV4-11 cells and 1 to 10000 nM in data set [1]. For the same compound, the half-life at 25 μM in the data set on glutathione (GSH) lay in the range of 9.23 to 1670 h.
In the case of `O=C(O)c1ccc(N(Cc2cc(C3CC3)cc(C3CC3)c2)C(=O)CN(Cc2ccc(F)cc2Cl)S(=O)(=O)c2c(F)c(F)c(F)c(F)c2F)c(C2CC2)c1` [Compound 1197, 4-(2-(N-(2-chloro-4-fluorobenzyl)-(2,3,4,5,6-pentafluorophenyl)sulfon-amido)-N-(3,5-dicyclopropylbenzyl)acetamido)-3-cyclopropylbenzoic acid], the IC50 lay within 0.01 to 316 nM with MV4-11 cells and 10000 to 20000 nM in data set [1]. Also, in the data set on glutathione (GSH), the half-life at 25 μM fell in the range of 4.12 to 9.23 h.
